Laboratory results: publication PMC7821181, “MS Binding Assays for Glycine Transporter 2 (GlyT2) Employing Org25543 as Reporter Ligand” (Chemmedchem, 2020)
“And” between values parts separate entries of the source, which are not always exact repeats. Equal values may be shown once. “Also recorded” adds a separate entry of the source. Read-outs that look alike come from different tables or passages of the source.

Assays:
[1] = target: T1, hGlyT2 (Homo sapiens, UniProt Q9Y345); assay: GlyT2 MS Binding Assays: competition experiments with Org25543 as reporter ligand; conditions: for affinity / inhibition of Org25543 binding, in words: up to highest concentration (sarcosine, L-serine, DL-leucine mM; Org24598 300 μM; LY2365109 10 μM; ALX5407 600 μM); for completeness of displacement of Org25543 from GlyT2, in words: up to the highest concentration investigated (glycine 1 M)
T1 construct: host or cells: HEK293 cells stably expressing hGlyT2; crude membrane fractions
T1 sequence (Q9Y345 1-797): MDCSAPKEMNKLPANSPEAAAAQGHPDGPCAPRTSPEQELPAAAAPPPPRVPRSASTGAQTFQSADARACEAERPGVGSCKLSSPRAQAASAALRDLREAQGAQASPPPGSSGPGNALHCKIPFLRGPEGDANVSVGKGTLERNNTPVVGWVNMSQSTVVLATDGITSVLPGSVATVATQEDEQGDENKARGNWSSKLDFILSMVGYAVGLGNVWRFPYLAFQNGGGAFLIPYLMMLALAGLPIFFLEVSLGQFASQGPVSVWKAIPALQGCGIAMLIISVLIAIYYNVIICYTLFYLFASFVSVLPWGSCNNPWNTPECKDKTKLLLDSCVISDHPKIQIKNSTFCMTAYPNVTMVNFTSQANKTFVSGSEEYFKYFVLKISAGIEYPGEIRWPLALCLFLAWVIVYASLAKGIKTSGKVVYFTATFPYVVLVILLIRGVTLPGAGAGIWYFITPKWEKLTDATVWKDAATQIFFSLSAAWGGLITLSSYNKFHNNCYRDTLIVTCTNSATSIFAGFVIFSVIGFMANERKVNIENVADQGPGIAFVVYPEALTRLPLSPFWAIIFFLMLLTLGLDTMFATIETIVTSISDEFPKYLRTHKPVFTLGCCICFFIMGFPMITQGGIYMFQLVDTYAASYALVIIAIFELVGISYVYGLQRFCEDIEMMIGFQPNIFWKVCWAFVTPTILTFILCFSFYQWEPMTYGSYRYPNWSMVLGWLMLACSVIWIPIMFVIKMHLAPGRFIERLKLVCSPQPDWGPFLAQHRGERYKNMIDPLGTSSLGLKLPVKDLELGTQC
Procedure: For the development of the desired competitive MS Binding Assay, the general concept of this kind of binding experiments was followed, in which the affinity of a test compound is delineated from its potency to compete out a reporter ligand, in our case Org25543, from its target binding site. Accordingly, the target protein was incubated with a defined concentration of the reporter ligand and increasing concentration of the individual test compound. In detail, the competitors were studied at seven different concentration levels, which covered about three concentration log units, whereas the concentration of Org25543 was fixed to 10 nM. Thereafter, via the developed LC‐ESI‐MS/MS method the amount of bound marker (total binding) was determined for the samples obtained from the individual incubation mixtures by the common workup for MS Binding Assays. Nonspecific binding was again determined in a set of analogous experiments in which GlyT2 membrane fractions were replaced by material subjected to a heat‐shock before. The resulting amount of Org25543 binding was defined as 0 % level of specific reporter ligand binding. […] The thus determined IC50 values were finally used to calculate the corresponding K i values by means of the Cheng‐Prusoff equation.
For preparation of GlyT2 membrane preparations HEK293 cells, stably expressing the hGlyT2 with a confluence ≥90 %, were used (kindly provided by AbbVie (Wiesbaden, Germany)). As cell culture medium DMEM containing 10 % fetal bovine serum (m/v), 100 U mL^−1 penicillin, 100 μg mL^−1 streptomycin and […] hygromycin B was used and the cells were cultivated in dishes (143 cm^2) at 37 °C and 8 % CO2. The cells were detached from the dish by aspirating the medium, adding 12 mL cell culture medium without hygromycin B and pipetting the medium several times until the cell lawn was completely detached. Subsequently, the cells were washed twice with PBS (5 min, 1600 rpm, Biofuge Stratos, rotor: #3047, Heraeus, Hanau, Germany) and afterwards homogenized in incubation buffer (10 mM HEPES, 120 mM NaCl, 2 mM KCl, 1 mM MgCl2, 1 mM CaCl2, pH 7.5) using a Polytron PTA 10 S (Kinematica Polytron, Littau‐Luzern, Switzerland). After homogenization aliquots of about 1 mg protein were frozen and stored at −80 °C. To determine the amount of protein in the membrane preparation (after treatment with 100 mM NaOH for 1 h) the protein determination according to Bradford ^[63] was applied, using bovine serum albumin as standard for calibration. At the day of the assay the membrane preparation was rapidly thawed, diluted in 20 mL incubation buffer and centrifuged at 4 °C for 20 min at 20 500 rpm (Sorvall Evolution RC, rotor: SS34, Thermo. Electron, Hanau, Germany). Finally, the resulting pellet was resuspended in 6 mL incubation buffer yielding a protein concentration of ∼0.1–0.2 mg mL^−1.
In polypropylene 96‐well plates (1.2 mL well volume, Sarstedt) membrane preparations (∼5–10 μg protein) were incubated in the presence of the reporter ligand and, if required, test compounds in incubation buffer (10 mM HEPES, 120 mM NaCl, 2 mM KCl, 1 mM MgCl2, 1 mM CaCl2, pH 7.5) in a total volume of 250 μL at 37 °C in a Julabo SW‐20 C water bath (Julabo GmbH, Seelbach, Germany) for 1 h (every sample was prepared in triplicates). After the incubation 210 μL aliquots of the binding samples were transferred by means of a 12‐channel pipette onto 96‐well glass fiber filter plates (AcroPrep Advance, glass fiber, 1.0 μm, 350 μL; Pall Corporation, Port Washington, NY, USA) where the incubation was terminated by vacuum filtration (the samples were transferred and the incubation was terminated row after row; Multi Well Plate Vacuum Manifold, Pall, Dreieich, Germany).

[2] = tested on: GlyT2; conditions: cited from earlier work; for pIC50 (literature; calcd): calcd from literature IC50; for IC50: read-out: Biological activity, IC50 (literature)
[3] = ref 61; cited from earlier work
[4] = tested on: GlyT2; conditions: cited from earlier work
[5] = read-out: Affinity, pKi (GlyT2 MS Binding Assays) (converted)
[6] = compound 600 μM, Org25543 10 nM

Q: Which “remaining Org25543 binding (% of specific binding) at the highest compound concentration” value ([1]; compound 10 mM, Org25543 10 nM) does the source give for `CC(C)CC(N)C(=O)O` (racemic) [DL‐leucine] here?
A: 99±3%

Q: And the Ki [1, 5]?
A: > 4270 µM

Q: What about the “affinity / inhibition of Org25543 binding, in words” value (from here on “affinity / inhibition”) [1] of the same compound?
A: no inhibition of Org25543 binding to more than 50%

Q: With `O=C(O)C1CCCN1` (racemic) [DL‐proline] as the compound, how does the “Glycine uptake in presence of 1 mM competitor (% of control)” value [2] read?
A: 95±5 %^[47],[c]

Q: And the Ki [1, 5]?
A: 31600 µM

Q: And the “completeness of displacement of Org25543 from GlyT2, in words” value [1]?
A: not able to displace Org25543 completely

Q: For `CN(CC[C@@H](Oc1ccc(-c2ccccc2)cc1)c1ccc(F)cc1)CC(=O)O` [ALX5407, N‐[(3R)‐3‐([1,1′‐biphenyl]‐4‐yloxy)‐3‐(4‐fluorophenyl)propyl]‐N‐methylglycine], which “pIC50 (literature; calcd)” value ([2]; ref 40) is on record?
A: 5.74

Q: And the “pIC50 (literature; calcd)” value ([2]; ref 54)?
A: < 4

Q: What about the IC50 ([2]; ref 40) of the same compound?
A: 1.8 µM

Q: What about the IC50 ([2]; ref 54) of the same compound?
A: > 100 µM

Q: And the IC50 [1]?
A: > 600 µM

Q: And the “remaining Org25543 binding (% of specific binding) at the highest compound concentration” value [1, 6]?
A: 90±5%

Q: And the Ki [1, 5]?
A: > 257 µM

Q: What about the “affinity / inhibition” value [1] of the same compound?
A: hardly a reduction of Org25543 binding

Q: Which “pIC50 (literature; calcd)” value ([2]; ref 56) does the source give for `CC(C)c1nnc(-c2ccc(-c3ccccc3)nc2)n1-c1cccc2nonc12` [ASP2535, 4‐[3‐(1‐methylethyl)‐5‐(6‐phenyl‐3‐pyridinyl)‐4H‐1,2,4‐triazol‐4‐yl]‐2,1,3‐benzoxadiazole] here?
A: 5.34

Q: And the IC50 ([2]; ref 56)?
A: 4.6 ± 0.29 µM

Q: And the Ki [1, 5]?
A: 1.02 µM

Q: What does the source list for `CN(CCC(Oc1ccc(C(=O)c2nccs2)cc1)c1ccc(Cl)cc1)CC(=O)O` (stereo not drawn) [CP‐802,079, N‐[3‐(4‐chlorophenyl)‐3‐[4‐(2‐thiazolylcarbonyl)phenoxy]propyl]‐N‐methyl‐glycine]?
A: pIC50 (literature; calcd) ([2]; ref 55): <5; IC50 ([2]; ref 55): > 10 µM; Ki [1, 5]: 22.9 µM

Q: With `CN(CCOc1ccc(-c2ccc3c(c2)OCO3)cc1C(C)(C)C)CC(=O)O` [LY2365109, N‐[2‐[4‐(1,3‐benzodioxol‐5‐yl)‐2‐(1,1‐dimethylethyl)‐phenoxy]ethyl]‐N‐methylglycine] as the compound, how does the “pIC50 (literature; calcd)” value ([2]; ref 57) read?
A: <4.52

Q: What about the IC50 ([2]; ref 57) of the same compound?
A: > 30 µM

Q: And the “remaining Org25543 binding (% of specific binding) at the highest compound concentration” value ([1]; compound 10 μM, Org25543 10 nM)?
A: 94±10%

Q: What about the Ki [1, 5] of the same compound?
A: > 4.27 µM

Q: And the “affinity / inhibition” value [1]?
A: hardly any affinity

Q: What does the source list for `N[C@@H](CO)C(=O)O` [L‐serine]?
A: Glycine uptake in presence of 1 mM competitor (% of control) [2]: 89±7 %^[47],[c]; remaining Org25543 binding (% of specific binding) at the highest compound concentration ([1]; compound 180 mM, Org25543 10 nM): 97±4%; Ki [1, 5]: > 77600 µM; affinity / inhibition of Org25543 binding, in words [1]: no inhibition of Org25543 binding to more than 50%

Q: For `CCCCC/C=C\C/C=C\C/C=C\C/C=C\CCCC(=O)NCC(=O)O` [N‐arachidonylglycine, N‐(1‐oxo‐(5Z,8Z,11Z,14Z)‐eicosatetraenyl)glycine], which “pIC50 (literature; calcd)” value ([2]; ref 52) is on record?
A: 5.29

Q: And the IC50 ([2]; ref 52)?
A: 5.1 ± 3.1 µM

Q: And the Ki [1]?
A: 3.98 µM

Q: What about the “critical micelle concentration (CMC)” value [3] of the same compound?
A: > 100 µM

Q: Which “pIC50 (literature; calcd)” value ([2]; ref 19) does the source give for `CCCCCCCC/C=C\CCCCCCCC(=O)NCC(=O)O` [N‐oleoylglycine, N‐(1‐oxo‐9‐octadecenyl)‐(Z)‐glycine] here?
A: 6.30

Q: What about the IC50 ([2]; ref 19) of the same compound?
A: 0.5 µM

Q: And the Ki [1, 5]?
A: 2.34 µM

Q: What about the “completeness of displacement of Org25543 from GlyT2, in words” value [1] of the same compound?
A: not able to displace Org25543 completely

Q: With `CN(CC[C@@H](Oc1ccc(C(F)(F)F)cc1)c1ccccc1)CC(=O)O` [Org24598, N‐methyl‐N‐[(3R)‐3‐phenyl‐3‐[4‐(trifluoromethyl)phenoxy]propyl]glycine] as the compound, how does the “pIC50 (literature; calcd)” value ([2]; ref 53) read?
A: <4

Q: And the IC50 ([2]; ref 53)?
A: > 100 µM

Q: What about the “remaining Org25543 binding (% of specific binding) at the highest compound concentration” value ([1]; compound 300 μM, Org25543 10 nM) of the same compound?
A: 101±5%

Q: What about the Ki [1, 5] of the same compound?
A: > 129 µM

Q: And the “affinity / inhibition” value [1]?
A: hardly any affinity

Q: What does the source list for `O=C(O)CCCCSc1ncnc2[nH]c(O)nc12` [ZINC6865169, 5‐((8‐hydroxy‐9H‐purin‐6‐yl)thio)pentanoic acid]?
A: pIC50 (literature; calcd) ([2]; ref 40): 6.29; IC50 ([2]; ref 40): 0.518 ± 0.066 µM; IC50 [1]: > 600 µM; remaining Org25543 binding (% of specific binding) at the highest compound concentration [1, 6]: 77% and 77±6%; Ki [1, 5]: > 257 µM; IC50 ([4]; ref 40, read-out: IC50 in glycine uptake studies): 0.518 µM

Q: For `CN(C)CCCN1c2ccccc2Sc2ccc(Cl)cc21` [chlorpromazine], which “pIC50 (literature; calcd)” value ([2]; ref 58) is on record?
A: 4.68

Q: And the IC50 ([2]; ref 58)?
A: 21 ± 4 µM

Q: And the Ki [1, 5]?
A: 28.2 µM

Q: With `COc1cc(C(=O)NCC2(N(C)C)CCCCC2)cc(OC)c1OCc1ccccc1` [compound 8] as the compound, how does the “pIC50 (literature; calcd)” value ([2]; ref 23) read?
A: 7.08

Q: And the IC50 ([2]; ref 23)?
A: 0.084 ± 0.003 µM

Q: And the Ki [1, 5]?
A: 0.0417 µM

Q: And the IC50 ([4]; ref 23, read-out: IC50 in [3H]glycine uptake assay)?
A: 0.084 µM

Q: Which “Glycine uptake in presence of 1 mM competitor (% of control)” value [2] does the source give for `COC(=O)CN` [glycine methyl ester] here?
A: 84±5 %^[47],[c]

Q: And the Ki [1, 5]?
A: 77600 µM

Q: What does the source list for `NCC(=O)O` [glycine]?
A: EC50 ([2]; K m and EC50 values, read-out: Biological activity (literature): K m and EC50 values): 6 to 1800 µM; Affinity, pKi (GlyT2 MS Binding Assays) ([1]; Org25543 10 nM, 37 °C, 1 h, mean±SEM, n=3–5, bounds in brackets where less than 50 % inhibition): 1.98±0.08; Ki ([1]; approximate value, read-out: Ki at GlyT2 in competition experiments): ~10000 µM; completeness of displacement of Org25543 from GlyT2, in words [1]: not able to displace Org25543 completely; also recorded: cannot completely displace Org25543

Q: With `CNCC(=O)O` [sarcosine] as the compound, how does the “pIC50 (literature; calcd)” value ([2]; ref 22) read?
A: <3

Q: What about the IC50 ([2]; ref 22) of the same compound?
A: > 1000 µM

Q: And the “remaining Org25543 binding (% of specific binding) at the highest compound concentration” value ([1]; compound 2.2 mM, Org25543 10 nM)?
A: 98±6%

Q: And the Ki [1, 5]?
A: > 933 µM

Q: And the “affinity / inhibition” value [1]?
A: no inhibition of Org25543 binding to more than 50%
